Literature values in patent publication US20240041743A1, “SYNERGISTIC TETRAPEPTIDE COMBINATION” (BASF CORPORATION, priority 2017, published 2024).
Residues, ends and D or L forms follow the SMILES beside them.

Legend:
[1] = system: skin texture, skin smoothing, firmness and elasticity; settings: 3% Syniorage
skin firmness = settings: 3% Dermican

SMILES	bi-daily application needed to improve skin texture, skin smoothing, and biomechanical properties of firmness and elasticity [1] [months]	bi-daily application needed to achieve an improvement of skin firmness (skin firmness) [months]	improvement on skin firmness after the first 2 months of application (skin firmness; bi-daily application, first 2 months)
CC(=O)N1CCC[C@H]1C(=O)N1CCC[C@H]1C(=O)N[C@@H](Cc1ccc(O)cc1)C(=O)N[C@@H](CC(C)C)C(=O)O [Syniorage™, N-Acetyl-Prolyl-Prolyl-Tyrosyl-Leucine] (Ac-PPYL-OH)	2		
CC(=O)N[C@@H](CCC(N)=O)C(=O)N[C@@H](CC(=O)O)C(=O)N[C@H](C(=O)N[C@@H](Cc1c[nH]cn1)C(=O)O)C(C)C [Dermican™, N-Acetyl-Glutaminyl-Aspartyl-Valyl-Histidine] (Ac-QDVH-OH)		4	no improvement was observed
